Values quoted from earlier work, collected in patent publication US7074553B2, “Retrovirus associated with myelodysplastic syndromes and uses thereof” (Rush University Medical Center, priority 2000, dated 2006).

Test system: anemia and thrombocytopenia of MDS patients
Conditions: administered as single agents

## granulocyte-macrophage colony-stimulating factor [GM-CSF]
  improvement of the anemia and the thrombocytopenia: rarely improves

B1: G-CSF: colony-stimulating growth factor designed to stimulate proliferation of hematopoietic progenitors (protein, UniProt P09919 31-207, looked up)
Granulocyte …: TPLGPASSLPQSFLLKCLEQVRKIQGDGAALQEKLVSECATYKLCHPEELVLLGHSLGIPWAPLSSCPSQALQLAGCLSQLHSGLFLYQGLLQALEGISPELGPTLDTLQLDVADFATTIWQQMEELGMAPALQPTQGAMPAFASAFQRRAGGVLVASHLQSFLEVSYRVLRHLAQP
  improvement of the anemia and the thrombocytopenia: rarely improves
